{"source": "ChEMBL document CHEMBL3785021", "about": "“Isatin analogs as novel inhibitors of Candida spp. β-carbonic anhydrase enzymes” (Bioorg Med Chem, 2016)", "key": {"Carbonic anhydrase [1]": {"target": "T1, Carbonic anhydrase (Candida glabrata CBS 138, UniProt Q6FTL6)", "T1 sequence (Q6FTL6 whole entry)": "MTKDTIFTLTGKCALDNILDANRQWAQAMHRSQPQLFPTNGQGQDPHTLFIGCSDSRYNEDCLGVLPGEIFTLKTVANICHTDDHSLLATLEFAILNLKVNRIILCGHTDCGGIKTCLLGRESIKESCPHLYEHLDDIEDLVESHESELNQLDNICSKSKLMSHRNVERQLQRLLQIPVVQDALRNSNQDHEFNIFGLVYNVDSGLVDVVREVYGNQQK", "test": "Inhibition of recombinant Candida glabrata beta carbonic anhydrase NCE103 expressed in Escherichia coli preincubated for 15 mins by stopped-flow CO2 hydration assay", "design": "species or system Nakaseomyces glabratus"}, "Carbonic anhydrase [2]": {"target": "T2, Carbonic anhydrase (Candida albicans (strain SC5314 / ATCC MYA-2876) (Yeast), UniProt Q5AJ71)", "T2 sequence (Q5AJ71 whole entry)": "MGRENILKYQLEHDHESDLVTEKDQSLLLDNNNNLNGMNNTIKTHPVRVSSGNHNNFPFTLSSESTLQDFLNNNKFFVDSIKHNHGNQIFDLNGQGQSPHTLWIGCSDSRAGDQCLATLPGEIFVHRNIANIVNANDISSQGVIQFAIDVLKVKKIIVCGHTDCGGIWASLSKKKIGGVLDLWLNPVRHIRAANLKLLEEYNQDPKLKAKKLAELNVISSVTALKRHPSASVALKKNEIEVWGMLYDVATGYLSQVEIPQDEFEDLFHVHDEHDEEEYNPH", "test": "Inhibition of recombinant Candida albicans beta carbonic anhydrase NCE103 expressed in Escherichia coli preincubated for 15 mins by stopped-flow CO2 hydration assay"}, "Carbonic anhydrase 2": {"target": "Carbonic anhydrase 2 (Homo sapiens, UniProt P00918)", "test": "Inhibition of recombinant human carbonic anhydrase 2 expressed in Escherichia coli preincubated for 15 mins by stopped-flow CO2 hydration assay"}, "Carbonic anhydrase 1": {"target": "Carbonic anhydrase 1 (Homo sapiens, UniProt P00915)", "sequence (P00915 whole entry)": "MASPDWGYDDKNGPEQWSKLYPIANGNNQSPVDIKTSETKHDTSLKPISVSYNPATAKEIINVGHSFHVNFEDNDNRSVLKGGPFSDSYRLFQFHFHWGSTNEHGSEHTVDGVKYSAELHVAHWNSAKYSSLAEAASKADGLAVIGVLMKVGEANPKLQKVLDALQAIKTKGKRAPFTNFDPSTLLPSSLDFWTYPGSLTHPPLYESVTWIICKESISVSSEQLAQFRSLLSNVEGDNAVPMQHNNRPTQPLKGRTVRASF", "test": "Inhibition of recombinant human carbonic anhydrase 1 expressed in Escherichia coli preincubated for 15 mins by stopped-flow CO2 hydration assay"}}, "data": [{"molecule": "CN1C(=O)/C(=N\\c2ccc(S(N)(=O)=O)cc2)c2cc(Cl)ccc21", "values": [{"measurement": "Ki", "setting": "Carbonic anhydrase [1]", "value": 0.0365, "unit": "µM"}, {"measurement": "Ki", "setting": "Carbonic anhydrase [2]", "value": 0.178, "unit": "µM"}]}, {"molecule": "NS(=O)(=O)c1ccccc1/N=C1\\C(=O)Nc2ccc(OC(F)(F)F)cc21", "values": [{"measurement": "Ki", "setting": "Carbonic anhydrase [1]", "value": 0.154, "unit": "µM"}, {"measurement": "Ki", "setting": "Carbonic anhydrase [2]", "value": 0.295, "unit": "µM"}]}, {"molecule": "CN1C(=O)/C(=N\\c2ccc(S(N)(=O)=O)cc2)c2cc(Br)ccc21", "values": [{"measurement": "Ki", "setting": "Carbonic anhydrase [1]", "value": 0.0371, "unit": "µM"}, {"measurement": "Ki", "setting": "Carbonic anhydrase [2]", "value": 0.156, "unit": "µM"}]}, {"molecule": "NS(=O)(=O)c1ccc(/N=C2\\C(=O)Nc3ccc(Cl)cc32)cc1", "values": [{"measurement": "Ki", "setting": "Carbonic anhydrase [1]", "value": 0.0382, "unit": "µM"}, {"measurement": "Ki", "setting": "Carbonic anhydrase [2]", "value": 0.0833, "unit": "µM"}]}, {"molecule": "NS(=O)(=O)c1ccccc1/N=C1\\C(=O)Nc2ccc(F)cc21", "values": [{"measurement": "Ki", "setting": "Carbonic anhydrase [1]", "value": 0.0554, "unit": "µM"}, {"measurement": "Ki", "setting": "Carbonic anhydrase [2]", "value": 0.0915, "unit": "µM"}]}, {"molecule": "NS(=O)(=O)c1ccc(/N=C2\\C(=O)Nc3ccc([N+](=O)[O-])cc32)cc1", "values": [{"measurement": "Ki", "setting": "Carbonic anhydrase [1]", "value": 0.0228, "unit": "µM"}, {"measurement": "Ki", "setting": "Carbonic anhydrase [2]", "value": 0.0341, "unit": "µM"}]}, {"molecule": "NS(=O)(=O)c1ccc(/N=C2\\C(=O)Nc3ccc(OC(F)(F)F)cc32)cc1", "values": [{"measurement": "Ki", "setting": "Carbonic anhydrase [1]", "value": 0.0451, "unit": "µM"}, {"measurement": "Ki", "setting": "Carbonic anhydrase [2]", "value": 0.0536, "unit": "µM"}]}, {"molecule": "NS(=O)(=O)c1ccc(N=C2C(=O)Nc3ccccc32)cc1", "values": [{"measurement": "Ki", "setting": "Carbonic anhydrase [1]", "value": 0.0484, "unit": "µM"}, {"measurement": "Ki", "setting": "Carbonic anhydrase 2", "value": 0.523, "unit": "µM"}, {"measurement": "Ki", "setting": "Carbonic anhydrase 1", "value": 0.422, "unit": "µM"}, {"measurement": "Ki", "setting": "Carbonic anhydrase [2]", "value": 0.0865, "unit": "µM"}]}, {"molecule": "Cc1ccc2c(c1)/C(=N/c1ccc(S(N)(=O)=O)cc1)C(=O)N2", "values": [{"measurement": "Ki", "setting": "Carbonic anhydrase [1]", "value": 0.0297, "unit": "µM"}, {"measurement": "Ki", "setting": "Carbonic anhydrase [2]", "value": 0.128, "unit": "µM"}]}, {"molecule": "CN1C(=O)/C(=N\\c2ccc(S(N)(=O)=O)cc2)c2ccccc21", "values": [{"measurement": "Ki", "setting": "Carbonic anhydrase [1]", "value": 0.0397, "unit": "µM"}, {"measurement": "Ki", "setting": "Carbonic anhydrase [2]", "value": 0.0759, "unit": "µM"}]}, {"molecule": "NS(=O)(=O)c1cccc(/N=C2\\C(=O)Nc3ccc(F)cc32)c1", "values": [{"measurement": "Ki", "setting": "Carbonic anhydrase [1]", "value": 0.0451, "unit": "µM"}, {"measurement": "Ki", "setting": "Carbonic anhydrase [2]", "value": 0.0613, "unit": "µM"}]}, {"molecule": "Cc1ccc2c(c1)/C(=N/c1ccccc1S(N)(=O)=O)C(=O)N2", "values": [{"measurement": "Ki", "setting": "Carbonic anhydrase [1]", "value": 0.0623, "unit": "µM"}, {"measurement": "Ki", "setting": "Carbonic anhydrase [2]", "value": 0.139, "unit": "µM"}]}, {"molecule": "CN1C(=O)/C(=N\\c2ccc(S(N)(=O)=O)cc2)c2cc([N+](=O)[O-])ccc21", "values": [{"measurement": "Ki", "setting": "Carbonic anhydrase [1]", "value": 0.0163, "unit": "µM"}, {"measurement": "Ki", "setting": "Carbonic anhydrase [2]", "value": 0.0217, "unit": "µM"}]}, {"molecule": "NS(=O)(=O)c1cccc(/N=C2\\C(=O)Nc3ccc([N+](=O)[O-])cc32)c1", "values": [{"measurement": "Ki", "setting": "Carbonic anhydrase [1]", "value": 0.0231, "unit": "µM"}, {"measurement": "Ki", "setting": "Carbonic anhydrase [2]", "value": 0.0357, "unit": "µM"}]}, {"molecule": "Cc1ccc2c(c1)/C(=N/c1cccc(S(N)(=O)=O)c1)C(=O)N2", "values": [{"measurement": "Ki", "setting": "Carbonic anhydrase [1]", "value": 0.0459, "unit": "µM"}, {"measurement": "Ki", "setting": "Carbonic anhydrase 2", "value": 0.565, "unit": "µM"}, {"measurement": "Ki", "setting": "Carbonic anhydrase [2]", "value": 0.157, "unit": "µM"}]}, {"molecule": "NS(=O)(=O)c1cccc(/N=C2\\C(=O)Nc3ccccc32)c1", "values": [{"measurement": "Ki", "setting": "Carbonic anhydrase [1]", "value": 0.0851, "unit": "µM"}, {"measurement": "Ki", "setting": "Carbonic anhydrase [2]", "value": 0.0981, "unit": "µM"}]}, {"molecule": "CN1C(=O)/C(=N\\c2ccc(S(N)(=O)=O)cc2)c2cc(F)ccc21", "values": [{"measurement": "Ki", "setting": "Carbonic anhydrase [1]", "value": 0.0324, "unit": "µM"}, {"measurement": "Ki", "setting": "Carbonic anhydrase [2]", "value": 0.0793, "unit": "µM"}]}, {"molecule": "NS(=O)(=O)c1cccc(/N=C2\\C(=O)Nc3ccc(OC(F)(F)F)cc32)c1", "values": [{"measurement": "Ki", "setting": "Carbonic anhydrase [1]", "value": 0.0535, "unit": "µM"}, {"measurement": "Ki", "setting": "Carbonic anhydrase [2]", "value": 0.088, "unit": "µM"}]}, {"molecule": "NS(=O)(=O)c1ccc(/N=C2\\C(=O)Nc3ccc(F)cc32)cc1", "values": [{"measurement": "Ki", "setting": "Carbonic anhydrase [1]", "value": 0.0216, "unit": "µM"}, {"measurement": "Ki", "setting": "Carbonic anhydrase [2]", "value": 0.0852, "unit": "µM"}]}, {"molecule": "Cc1ccc2c(c1)/C(=N/c1ccc(S(N)(=O)=O)cc1)C(=O)N2C", "values": [{"measurement": "Ki", "setting": "Carbonic anhydrase [1]", "value": 0.0353, "unit": "µM"}, {"measurement": "Ki", "setting": "Carbonic anhydrase [2]", "value": 0.0841, "unit": "µM"}]}, {"molecule": "NS(=O)(=O)c1ccccc1/N=C1\\C(=O)Nc2ccc(Cl)cc21", "values": [{"measurement": "Ki", "setting": "Carbonic anhydrase [1]", "value": 0.0589, "unit": "µM"}, {"measurement": "Ki", "setting": "Carbonic anhydrase [2]", "value": 0.0657, "unit": "µM"}]}, {"molecule": "NS(=O)(=O)c1ccccc1/N=C1\\C(=O)Nc2ccccc21", "values": [{"measurement": "Ki", "setting": "Carbonic anhydrase [1]", "value": 0.0665, "unit": "µM"}, {"measurement": "Ki", "setting": "Carbonic anhydrase [2]", "value": 0.136, "unit": "µM"}]}, {"molecule": "NS(=O)(=O)c1cccc(/N=C2\\C(=O)Nc3ccc(Cl)cc32)c1", "values": [{"measurement": "Ki", "setting": "Carbonic anhydrase [1]", "value": 0.0501, "unit": "µM"}, {"measurement": "Ki", "setting": "Carbonic anhydrase [2]", "value": 0.0548, "unit": "µM"}]}]}
